Results as given in article PMC8041276 (ACS Chemical Neuroscience, 2021).
Where two headings read alike, the source gives them in different places.

Tests used:
[1] = biological target: T1, 5-HT6R (Homo sapiens, UniProt P50406); assay: [3H]-LSD radioligand binding assay, HEK293 cells stably expressing human 5-HT6R; set-up: expressed in transfected cells; settings: mean of three independent experiments
Method: Final compounds were evaluated in the [^3H]-LSD binding assay using HEK293 cells with stable expression of human 5-HT6R. […] Because the fluorine atom might affect the affinity at target protein as well as physicochemical and pharmacokinetic properties of compound,[22] fluorine substitution at the 2-phenyl ring was applied. […] The analysis of the binding mode of 18 and 28 (Figure 2A) confirmed that the 2-phenyl moiety is placed in the hydrophobic cavity between transmembrane domains (TMs) 4–6.
(§1) All experiments were carried out according to the previously published procedures.[41]−[43] HEK293 cells stably expressing human 5-HT1A, 5-HT6, 5-HT7b, and D2L receptors (prepared with the use of Lipofectamine 2000) or CHO-K1 cells with plasmid containing the sequence coding for the human serotonin 5-HT2A receptor (PerkinElmer) were maintained at 37 °C in a humidified atmosphere containing 5% CO2 and grown in Dulbecco’s modified Eagle’s medium containing 10% dialyzed fetal bovine serum and 500 μg/mL G418 sulfate. For membrane preparation, cells were cultured in 150 cm^2 flasks, grown to 90% confluence, washed twice with prewarmed to 37 °C phosphate buffered saline (PBS), and centrifuged (200g) in PBS containing 0.1 mM EDTA and 1 mM dithiothreitol. Prior to membrane preparation, pellets were stored at −80 °C. Cell pellets were thawed and homogenized in 10 volumes of assay buffer using an Ultra Turrax tissue homogenizer and centrifuged twice at 35 000g for 15 min at 4 °C, with incubation for 15 min at 37 °C between the centrifugations. The composition of the assay buffers was experimentally selected to achieve the maximum signal window (more details in Supporting Information). All assays were carried out in a total volume of 200 μL in 96-well plates for 1 h at 37 °C except 5-HT1AR and 5-HT2AR which were incubated at room temperature and 27 °C, respectively. The process of equilibration was terminated by rapid filtration through Unifilter plates with a 96-well cell harvester, and radioactivity retained on the filters was quantified on a Microbeta plate reader (PerkinElmer, USA). For displacement studies the assay samples contained the following as radioligands (PerkinElmer, USA): 2.5 nM [^3H]-8-OH-DPAT (135.2 Ci/mmol) for 5-HT1AR; 1 nM [^3H]-ketanserin (53.4 Ci/mmol) for 5-HT2AR; 2 nM [^3H]-LSD (83.6 Ci/mmol) for 5-HT6R; 0.8 nM [^3H]-5-CT (39.2 Ci/mmol) for 5-HT7R or 2.5 nM [^3H]-raclopride (76.0 Ci/mmol) for D2LR. Nonspecific binding was defined in the presence of 10 μM 5-HT in 5-HT1AR and 5-HT7R binding experiments, whereas 20 μM mianserin, 10 μM methiothepine, and 10 μM haloperidol were used in 5-HT2AR, 5-HT6R, and D2LR assays, respectively. Each compound was tested in triplicate at seven concentrations (10^–10–10^–4 M). The inhibition constants (Ki) were calculated from the Cheng–Prusoff equation.[44]

[2] = biological target: T1, 5-HT6R; assay: Basal cAMP production (constitutive Gs signaling) in NG108-15 cells transiently expressing 5-HT6R, CAMYEL BRET; type: cell-based; set-up: expressed in transfected cells; host or cells: NG108-15 (transient, Lipofectamine 2000, cotransfected with the CAMYEL sensor); settings: for functional profile: 5-HT6R-dependent Gs signaling, NG108-15 cells; for IC50: decrease of basal cAMP, NG108-15 cells transiently expressing 5-HT6R
Method: NG108-15 cells were grown in Dulbecco’s modified Eagle’s medium (DMEM) supplemented with 10% dialyzed fetal calf serum, 2% hypoxanthine/aminopterin/thymidine (Life Technologies), and antibiotics. cAMP measurement was performed in cells transiently expressing 5-HT6R using the bioluminescence resonance energy transfer (BRET) sensor for cAMP, CAMYEL (cAMP sensor using YFP-Epac-RLuc).[45] NG108-15 cells were cotransfected in suspension with 5-HT6R (0.5 μg DNA/million cells) and CAMYEL constructs (1 μg DNA/million cells), using Lipofectamine 2000 according to the manufacturer’s protocol, and plated in white 96-well plates (Greiner) at a density of 50 000 cells per well. […] Coelanterazine H (Molecular Probes) was added at a final concentration of 5 μM and left at room temperature for 5 min. BRET was measured using a Mithras LB 940 plate reader (Berthold Technologies).

[3] = biological target: T2, 5-HT7R (Homo sapiens, UniProt P34969); assay: [3H]-5-CT radioligand binding assay, HEK293 cells; settings: mean of three experiments
T2 construct: expressed in transfected cells
T2 sequence (P34969 1-432): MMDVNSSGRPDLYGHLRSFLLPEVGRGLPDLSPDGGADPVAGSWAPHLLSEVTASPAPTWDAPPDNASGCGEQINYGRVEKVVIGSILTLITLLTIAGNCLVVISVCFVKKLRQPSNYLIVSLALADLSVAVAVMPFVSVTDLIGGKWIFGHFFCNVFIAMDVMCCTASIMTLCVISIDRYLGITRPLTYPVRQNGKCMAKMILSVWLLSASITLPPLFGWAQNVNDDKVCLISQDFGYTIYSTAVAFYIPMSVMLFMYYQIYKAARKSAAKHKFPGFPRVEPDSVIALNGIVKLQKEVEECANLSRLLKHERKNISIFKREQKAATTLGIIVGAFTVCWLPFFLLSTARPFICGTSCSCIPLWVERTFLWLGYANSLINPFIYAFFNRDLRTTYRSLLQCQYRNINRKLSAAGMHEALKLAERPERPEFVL
Method: as §1

[4] = biological target: T3, 5-HT1AR (Homo sapiens, UniProt P08908); assay: [3H]-8-OH-DPAT radioligand binding assay, HEK293 cells; settings: mean of three experiments
T3 construct: expressed in transfected cells
T3 sequence (P08908 1-422): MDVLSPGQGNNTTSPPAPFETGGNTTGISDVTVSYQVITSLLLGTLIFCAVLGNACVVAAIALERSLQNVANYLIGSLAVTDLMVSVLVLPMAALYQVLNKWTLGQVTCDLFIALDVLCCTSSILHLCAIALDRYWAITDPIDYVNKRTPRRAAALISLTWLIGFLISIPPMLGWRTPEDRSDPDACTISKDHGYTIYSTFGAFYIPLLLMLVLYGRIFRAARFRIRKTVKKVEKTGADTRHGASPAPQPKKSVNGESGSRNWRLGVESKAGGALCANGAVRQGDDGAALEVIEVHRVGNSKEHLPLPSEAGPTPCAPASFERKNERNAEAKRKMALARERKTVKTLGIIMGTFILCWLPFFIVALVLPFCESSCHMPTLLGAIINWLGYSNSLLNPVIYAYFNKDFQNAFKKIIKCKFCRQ
Method: as §1

[5] = biological target: T1, 5-HT6R; assay: Inhibition of 5-CT-stimulated cAMP production in 1321N1 cells; type: cell-based; set-up: expressed in transfected cells; settings: antagonism of 5-CT (1000 nM)-stimulated cAMP
Method: The effect of compounds 18, 22, 27, and 28 on adenylate cyclase was examined in 1321N1 cells expressing the 5-HT6R.
The properties of compounds 18, 22, 27, 28 to inhibit cAMP production induced by 5-CT (1000 nM), a 5-HT6R agonist, were evaluated. Compounds were tested in triplicate at eight concentrations (10^–11–10^–4 M). The level of cAMP was measured using frozen recombinant 1321N1 cells expressing the human serotonin 5-HT6R (PerkinElmer). Total cAMP was measured using the LANCE cAMP detection kit (PerkinElmer), according to the manufacturer’s recommendations. For quantification of cAMP levels, 2000 cells/well (5 μL) were incubated with a mixture of compounds (5 μL) for 30 min at room temperature in 384-well white opaque microtiter plate. After incubation, the reaction was stopped and cells were lysed by the addition of 10 μL of working solution (5 μL of Eu-cAMP and 5 μL of ULight-anti-cAMP) for 1 h at room temperature. Time-resolved fluorescence resonance energy transfer (TR-FRET) was detected by an Infinite M1000 Pro (Tecan) using instrument settings from LANCE cAMP detection kit manual. Kb values were calculated from Cheng–Prusoff equation specific for the analysis of functional inhibition curves: Kb = IC50/(1 + A/EC50) where A represents agonist concentration, IC50 the concentration of antagonist producing a 50% reduction in the response to agonist, and EC50 the agonist concentration which causes a half of the maximal response.[44]

[6] = biological target: T4, D2R (Homo sapiens, UniProt P14416); assay: [3H]-raclopride radioligand binding assay, HEK293 cells; settings: mean of three experiments
T4 construct: expressed in transfected cells
T4 sequence (P14416 whole entry): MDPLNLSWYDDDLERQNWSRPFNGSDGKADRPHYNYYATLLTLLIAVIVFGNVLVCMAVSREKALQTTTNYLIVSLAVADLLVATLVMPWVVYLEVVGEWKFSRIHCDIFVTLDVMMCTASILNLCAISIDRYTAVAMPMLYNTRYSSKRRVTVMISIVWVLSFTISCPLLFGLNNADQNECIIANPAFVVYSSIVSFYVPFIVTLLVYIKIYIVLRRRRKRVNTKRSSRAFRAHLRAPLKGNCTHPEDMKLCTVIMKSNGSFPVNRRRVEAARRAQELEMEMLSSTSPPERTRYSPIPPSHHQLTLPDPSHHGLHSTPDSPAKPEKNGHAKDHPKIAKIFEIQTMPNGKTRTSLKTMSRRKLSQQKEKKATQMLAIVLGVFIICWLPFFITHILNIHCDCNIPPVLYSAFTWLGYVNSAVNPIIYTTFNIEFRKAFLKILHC
Method: as §1

[7] = biological target: T5, 5-HT2AR (Homo sapiens, UniProt P28223); assay: [3H]-ketanserin radioligand binding assay, CHO-K1 cells; settings: mean of three experiments
T5 construct: host or cells: CHO-K1
T5 sequence (P28223 whole entry): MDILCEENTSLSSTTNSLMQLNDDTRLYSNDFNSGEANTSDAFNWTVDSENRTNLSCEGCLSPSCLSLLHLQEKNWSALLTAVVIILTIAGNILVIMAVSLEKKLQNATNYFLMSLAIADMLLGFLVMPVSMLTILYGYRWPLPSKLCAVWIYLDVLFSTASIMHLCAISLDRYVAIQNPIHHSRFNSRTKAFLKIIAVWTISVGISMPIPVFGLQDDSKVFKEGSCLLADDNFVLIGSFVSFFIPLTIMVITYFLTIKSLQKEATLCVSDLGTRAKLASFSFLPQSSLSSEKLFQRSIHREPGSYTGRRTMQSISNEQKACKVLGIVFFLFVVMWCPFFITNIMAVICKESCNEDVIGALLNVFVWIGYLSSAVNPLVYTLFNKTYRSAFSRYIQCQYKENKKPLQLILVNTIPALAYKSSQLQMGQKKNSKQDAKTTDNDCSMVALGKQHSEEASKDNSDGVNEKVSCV

[8] = biological target: T1, 5-HT6R; set-up: expressed in transfected cells; settings: cited from earlier work

T1 sequence (P50406 whole entry, the tested form may be a part): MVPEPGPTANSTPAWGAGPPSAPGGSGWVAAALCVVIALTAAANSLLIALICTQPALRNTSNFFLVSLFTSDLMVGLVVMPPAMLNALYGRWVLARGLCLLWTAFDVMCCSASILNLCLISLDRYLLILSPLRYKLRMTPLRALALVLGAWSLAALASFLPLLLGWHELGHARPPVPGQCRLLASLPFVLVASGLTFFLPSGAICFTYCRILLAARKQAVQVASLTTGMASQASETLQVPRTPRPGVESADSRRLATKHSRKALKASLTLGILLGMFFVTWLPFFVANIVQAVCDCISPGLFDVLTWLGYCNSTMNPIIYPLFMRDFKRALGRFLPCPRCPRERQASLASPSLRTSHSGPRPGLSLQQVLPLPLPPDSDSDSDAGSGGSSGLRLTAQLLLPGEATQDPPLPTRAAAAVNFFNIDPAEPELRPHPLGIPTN

| Structure (SMILES) | Ki [1] | also measured |
| --- | --- | --- |
| O=C(N[C@@H]1CCNC1)c1ccn(S(=O)(=O)c2ccccc2)c1-c1ccccc1 [Compound 7] | 0.208 µM |  |
| O=C(N[C@H]1CCNC1)c1ccn(S(=O)(=O)c2ccccc2)c1-c1ccccc1 [Compound 8] | 0.106 µM |  |
| Cc1ccccc1S(=O)(=O)n1ccc(C(=O)N[C@@H]2CCNC2)c1-c1ccccc1 [Compound 9] | 0.324 µM |  |
| O=C(N[C@@H]1CCNC1)c1ccn(S(=O)(=O)c2ccccc2Cl)c1-c1ccccc1 [Compound 10] | 0.179 µM |  |
| Cc1cccc(S(=O)(=O)n2ccc(C(=O)N[C@@H]3CCNC3)c2-c2ccccc2)c1 [Compound 11] | 0.096 µM |  |
| O=C(N[C@@H]1CCNC1)c1ccn(S(=O)(=O)c2cccc(F)c2)c1-c1ccccc1 [Compound 12] | 0.088 µM |  |
| O=C(N[C@@H]1CCNC1)c1ccn(S(=O)(=O)c2cccc(C(F)(F)F)c2)c1-c1ccccc1 [Compound 13] | 0.159 µM |  |
| O=C(N[C@H]1CCNC1)c1ccn(S(=O)(=O)c2cccc(C(F)(F)F)c2)c1-c1ccccc1 [Compound 14] | 0.038 µM |  |
| O=C(N[C@@H]1CCNC1)c1ccn(S(=O)(=O)c2cccc(OC(F)(F)F)c2)c1-c1ccccc1 [Compound 15] | 0.052 µM |  |
| O=C(N[C@H]1CCNC1)c1ccn(S(=O)(=O)c2cccc(OC(F)(F)F)c2)c1-c1ccccc1 [Compound 16] | 0.031 µM |  |
| O=C(N[C@@H]1CCNC1)c1ccn(S(=O)(=O)c2cccc(Cl)c2)c1-c1ccccc1 [Compound 17] | 0.035 µM |  |
| O=C(N[C@H]1CCNC1)c1ccn(S(=O)(=O)c2cccc(Cl)c2)c1-c1ccccc1 [Compound 18, (S)-2-Phenyl-1-[(3-chlorophenyl)sulfonyl]-N-(pyrrolidin-3-yl)-1H-pyrrole-3-carboxamide] | 0.025 µM | functional profile [2]: inverse agonist; IC50 [2]: 0.17 µM; Ki [3]: 65.5 µM; Ki [4]: 1.37 µM; Kb [5]: 0.035 µM; Ki [6]: 6.84 µM; Ki [7]: 14.6 µM |
| O=C(N[C@H]1CCNC1)c1ccn(S(=O)(=O)c2cccs2)c1-c1ccccc1 [Compound 19] | 0.162 µM |  |
| Cn1cc(S(=O)(=O)n2ccc(C(=O)N[C@H]3CCNC3)c2-c2ccccc2)cn1 [Compound 20] | 1.46 µM |  |
| O=C(N[C@@H]1CCNC1)c1ccn(S(=O)(=O)c2cccc(Cl)c2)c1-c1cccc(F)c1 [Compound 21] | 0.098 µM |  |
| O=C(N[C@H]1CCNC1)c1ccn(S(=O)(=O)c2cccc(Cl)c2)c1-c1cccc(F)c1 [Compound 22, (S)-2-(3-Fluorophenyl)-1-[(3-chlorophenyl)sulfonyl)-N-(pyrrolidin-3-yl)-1H-pyrrole-3-carboxamide] | 0.028 µM | functional profile [2]: inverse agonist; IC50 [2]: 0.306 µM; Ki [3]: 7.06 µM; Ki [4]: 65.7 µM; Kb [5]: 0.006 µM; Ki [6]: 6.66 µM; Ki [7]: 15.2 µM |
| O=C(N[C@@H]1CCNC1)c1ccn(S(=O)(=O)c2ccc(F)cc2)c1-c1cccc(F)c1 [Compound 23] | 0.853 µM |  |
| O=C(N[C@@H]1CCNC1)c1ccn(S(=O)(=O)c2ccccc2)c1-c1ccc(F)cc1 [Compound 24] | 0.102 µM |  |
| COc1cccc(S(=O)(=O)n2ccc(C(=O)N[C@@H]3CCNC3)c2-c2ccc(F)cc2)c1 [Compound 25] | 0.35 µM |  |
| O=C(N[C@@H]1CCNC1)c1ccn(S(=O)(=O)c2cccc(F)c2)c1-c1ccc(F)cc1 [Compound 26] | 0.056 µM |  |
| O=C(N[C@@H]1CCNC1)c1ccn(S(=O)(=O)c2ccc(F)cc2)c1-c1ccc(F)cc1 [Compound 29] | 2.58 µM |  |
| O=C(N[C@H]1CCNC1)c1ccn(S(=O)(=O)c2ccc(F)cc2)c1-c1ccc(F)cc1 [Compound 30] | 0.638 µM |  |
| O=C(N[C@H]1CCNC1)c1ccn(S(=O)(=O)c2cccc3ccccc23)c1-c1ccc(F)cc1 [Compound 31] | 0.391 µM |  |
| O=C(N[C@H]1CCNC1)c1ccn(S(=O)(=O)c2cccc3cccnc23)c1-c1ccc(F)cc1 [Compound 32] | 1.21 µM |  |
| O=S(=O)(c1ccccc1)n1ccc2c(NC3CCNC3)nc3ccccc3c21 (stereo not drawn) [I] |  | Ki [8]: 0.01 µM |
